{
  "source": "patent US8703431B2",
  "about": "“Polypeptides for the in vitro assessment of the sensitising potential of a test compound” (Immunosearch, priority 2009, dated 2014)",
  "key": {"[1]": {"target": "T1, polypeptide SEQ ID NO: 7 in which X1, X2, X3 and X4 each represents a lysine (Mus musculus, UniProt P11672, DEL176-176)", "T1 construct": "made in house; host or cells: chemical peptide synthesis (Fmoc)", "T1 sequence (P11672 with tags, fused parts or gaps DEL176-176 limits assumed)": "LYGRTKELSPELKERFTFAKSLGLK", "experiment": "HPLC test of % fixing of test compound on polypeptide", "type": "binding", "conditions": "0.5 mM polypeptide, 5 mM test compound, 100 mM ammonium acetate buffer pH 10.2, 30° C., 4 hours, darkness", "method": "(§1) A test with 0.5 mM of polypeptide and 5 mM of test compound is carried out under the following conditions:\n(§2) The reaction mixture containing 40 μl of peptide solution (1.25 mM stock solution in a 100 mM ammonium acetate buffer at pH 10.2 and the polypeptide of sequence SEQ ID NO: 18, SEQ ID NO: 7 in which X1, X2, X3 and X4 each represents a lysine, or SEQ ID NO: 8 in which X1, X2, X3 and X4 each represents a lysine), 35 μl of 100 mM ammonium acetate buffer solution, at pH 10.2, 20 μl of acetonitrile and 5 μl of solution to be tested (100 mM stock solution in acetonitrile or a 50% acetonitrile 50% DMSO mixture) was prepared and then stirred.\n(§3) The reaction mixture was then put to incubate at 30° C. for 4 hours and in darkness.\n(§4) HPLC analysis was then carried out at a gradient of 10% to 45% of buffer B (acetonitrile+0.08% of trifluoroacetic acid (TFA)) in 20 minutes (buffer A: water+0.1% of TFA), rate 1 ml/minute. Detection was carried out under UV at 230 nm.\n(§5) The control without allergen consisted of 40 μl of buffer solution."}, "[2]": {"system": "polypeptide of sequence SEQ ID NO: 18 (Ac-RFAAKAA-NH2)", "experiment": "HPLC test of % fixing of test compound on polypeptide (positive control peptide)", "type": "binding", "conditions": "0.5 mM polypeptide, 5 mM test compound, 100 mM ammonium acetate buffer pH 10.2, 30° C., 4 hours, darkness", "method": "as §1, §2\nThe sequence SEQ ID NO: 18, which is not a lipocalin derivative, was used as a positive control. This sequence corresponds to the following sequence:\nas §3, §4, §5"}, "[3]": {"system": "polypeptide SEQ ID NO: 1 wherein X1, X2, X3 and X4 each represent a lysine, having an NH2 group at its C-Terminal end", "experiment": "HPLC test of % fixing of test compound on polypeptide", "type": "binding", "method": "as §1, §2, §3, §4, §5\n(§6) A test with twice 0.5 mM of polypeptides of sequences SEQ ID NO: 19 and SEQ ID NO: 1 wherein X1, X2, X3 and X4 each represent a lysine, and having an NH2 group at its C-Terminal end, and SEQ ID NO: 8 wherein X1, X2, X3 and X4 each represent a lysine, and 5 mM of test compound, was carried out in accordance with the same protocol as that described for example 1.\n(§7) The buffer used was TRIS-HCl at 100 mM.\nIt should be noted, in the case of the tests of SEQ ID NO: 1, the signal was disturbed, preventing measurements greater than 82-83% fixing. These values consequently represent a minimum.\nA coelution of the polypeptide with the allergens cinnamic aldehyde and 1,2-Benzisothiazolin-3-one was observed."}, "[4]": {"system": "polypeptide of sequence SEQ ID NO: 19 (Ac-RFAACAA-NH2)", "experiment": "HPLC test of % fixing of test compound on polypeptide (positive control peptide)", "type": "binding", "conditions": "5 mM test compound", "method": "as §1, §2, §3, §4, §5\nA test with 0.5 mM of polypeptide of sequence […] and 5 mM of test compound was carried in accordance with the same protocol as that described for example 1.\nThe sequence SEQ ID NO: 19, which is not a lipocalin derivative, was used as a positive control. This sequence corresponds to the following sequence:\nThe buffer used was 100 mM TRIS-HCl at pH 8.3.\n(§8) The buffer used was 100 Mm TRIS-HCl at pH 8.3, pH 9.2 and pH 8.8.\nas §7, §6"}, "[5]": {"target": "T2, polypeptide SEQ ID NO: 8 in which X1, X2, X3 and X4 each represents a lysine (Mus musculus, UniProt O09114)", "T2 construct": "made in house; host or cells: chemical peptide synthesis (Fmoc)", "T2 sequence (O09114 148-173 limits assumed)": "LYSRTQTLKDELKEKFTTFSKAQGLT", "experiment": "HPLC test of % fixing of test compound on polypeptide", "type": "binding", "conditions": "5 mM test compound", "method": "as §1, §2, §3, §4, §5, §8, §7, §6"}, "[6]": {"conditions": "skin sensitisation, as stated in the description; cited from earlier work"}},
  "data": [
    {"smiles": "CCCCCCCCCCCCOC(=O)c1cc(O)c(O)c(O)c1", "note": "[LG, lauryl gallate]", "values": [
      {"measurement": "% fixing, SEQ ID NO: 7 (X1-X4 lysine)", "setting": "[1]", "value": 100, "unit": "%"},
      {"measurement": "% fixing, SEQ ID NO: 18", "setting": "[2]", "value": 62, "unit": "%"},
      {"measurement": "% fixing, SEQ ID NO: 1 (X1-X4 lysine, NH2 group at C-Terminal end)", "setting": "[3]; Example 5, 5 mM test compound, TRIS-HCl 100 mM, signal disturbed, preventing measurements greater than 82-83% fixing, these values represent a minimum", "value": 41.5, "unit": "%"},
      {"measurement": "precipitation of test compound during measurements with SEQ ID NO: 1", "setting": "[3]; Example 5 conditions, explains the medium fixing results", "value": "very greatly precipitated"},
      {"measurement": "% fixing, SEQ ID NO: 19", "setting": "[4]; Example 2, 0.5 mM polypeptide, 100 mM TRIS-HCl pH 8.3", "value": 100, "unit": "%"},
      {"measurement": "% fixing (mean), SEQ ID NO: 19", "setting": "[4]; Example 4, twice 0.5 mM polypeptide, TRIS-HCl 100 mM", "value": 100, "unit": "%"},
      {"measurement": "% fixing, SEQ ID NO: 19", "setting": "[4]; Example 5, twice 0.5 mM polypeptide, TRIS-HCl 100 mM", "value": 100, "unit": "%"},
      {"measurement": "% fixing, SEQ ID NO: 8 (X1-X4 lysine)", "setting": "[5]; 0.5 mM polypeptide, 100 mM ammonium acetate buffer pH 10.2, 30° C., 4 hours, darkness", "value": 63, "unit": "%"},
      {"measurement": "% fixing (mean), SEQ ID NO: 8 (X1-X4 lysine)", "setting": "[5]; Example 4, twice 0.5 mM polypeptide, TRIS-HCl 100 mM, 'Fixing' = not quantifiable", "value": 62, "unit": "%"},
      {"measurement": "% fixing, SEQ ID NO: 8 (X1-X4 lysine)", "setting": "[5]; Example 5, twice 0.5 mM polypeptide, TRIS-HCl 100 mM, 'Fixing' = not quantifiable", "value": 62, "unit": "%"},
      {"measurement": "sensitising capacity (sensitiser class)", "setting": "[6]", "value": "strong sensitisers"}
    ]}
  ]
}
